Reference: US20150119267A1, “INHIBITION OF COLONY STIMULATING FACTOR-1 RECEPTOR SIGNALING FOR THE TREATMENT OF BRAIN CANCER” (SLOAN-KETTERING INSTITUTE FOR CANCER RESEARCH, priority 2012, published 2015)
“Also recorded” adds a separate entry of the source.

Tests used:
[1] = system: CSF1-dependent cell proliferation; test: CSF1-dependent cell proliferation; format: cell-based; conditions: read-out: inhibits CSF1-dependent cell proliferation
[2] = system: primary bone marrow-derived macrophages (BMDMs); test: MTT assay, primary BMDMs; format: cell-based, mouse; conditions: wild-type C57BL/6 BMDMs in culture, 67 nM
Protocol: (§1) Cell growth rate was determined using the MTT cell proliferation kit (Roche). […] Media was changed every 48 hours. BMDM and CRL-2467 cells were supplemented with 10 ng/ml and 30 ng/ml recombinant mouse CSF-1 respectively unless otherwise indicated. Ten μl of MTT labeling reagent was added to each well and then incubated for 4 hours at 37° C., followed by the addition of 100 μl MTT solubilization reagent overnight. The mixture was gently resuspended and absorbance was measured at 595 nm and 750 nm on a SPECTRAMAX 340 pc plate reader (Molecular Devices).

Ink4a/Arf−/− BMDMs = test: MTT assay, Nestin-Tv-a;Ink4a/Arf−/− BMDMs; format: cell-based, mouse
Protocol: as §1

[3] = system: CRL-2467 microglia cell line; test: MTT assay, CRL-2467 microglia; format: cell-based
Protocol: U-87 MG (HTB-14) glioma and CRL-2467 microglia cell lines were purchased from ATCC. The U-87 MG cell line was cultured in DMEM+10% FBS. The CRL-2467 cell line was cultured in DMEM+10% FBS with 30 ng/ml recombinant mouse CSF-1.
as §1

PDG tumor cell lines = test: MTT assay, PDG tumor cell lines; format: cell-based, mouse; conditions: concentrations up to 6700 nM
Protocol: For neurosphere formation the cell pellet was resuspended in neurosphere media consisting of mouse NSC Basal Media, NSC proliferation supplements, 10 ng/ml EGF, 20 ng/ml basic-FGF and 1 mg/ml Heparin (Stem Cell Technologies). Fresh media was added every 72 hours for 2 weeks. Primary neurospheres were collected, mechanically disaggregated to a single cell suspension and propagated by serial passaging. To generate glioma cell lines, secondary neurospheres were dissociated to single cell suspensions and cultivated in DMEM+10% FBS as a monolayer (10). Multiple glioma cell lines were derived from independent mice, denoted GBM1-4 herein. Glioma cells were infected with a pBabe-H2B-mCherry construct as described previously (11).
as §1

[4] = BLZ945 pharmacokinetics, blood-brain barrier; format: in vivo, mouse; conditions: single dose 200 mg/kg oral gavage
Protocol: The CSF-1R inhibitor was obtained from the Novartis Institutes for Biomedical Research (Emeryville, Calif.). The drug was formulated in 20% captisol at a concentration of 12.5 mg/ml. The vehicle control, 20% captisol, was processed in the same manner. […] To determine if the drug was able to cross the blood-brain barrier, tumor-bearing mice were treated with a single dose of the CSF-1R inhibitor and sacrificed at different time points post-treatment. Plasma, and the left (contralateral) and right (tumor-bearing) hemispheres of the brain were snap frozen in liquid nitrogen for subsequent analysis of CSF-1R inhibitor concentrations in the tissue. For long-term survival studies, dosing begun at 17 days/2.5 weeks post-injection of RCAS-PDGF-B-HA. For the fixed time-point studies, mice underwent MRI scans at 4-5 weeks post-injection of RCAS-PDGF-B-HA, as previously described (5). To determine tumor volume, regions of interest (ROI) were circumscribed on T2 weighted images and their corresponding area in mm^2 was multiplied by the slice height of 0.7 mm. The total tumor volume is the sum of the ROI volume in each slice, and the volume for the first and last slice in which the tumor appears is halved to approximate the volume of a trapezoid. When tumor volume was in the range of 4.5-40 mm^3, animals were randomly assigned to treatment groups. […]

established PDG gliomas = test: Short-term 7 day trial on established tumors (MRI, histology); format: in vivo, mouse; conditions: for Apoptosis (% CC3+) / Macrophages (% CD68+) / Phagocytic Capacity / Proliferation (% BrdU+Olig2+) / Total DAPI+ Cells / Tumor Cells (% Olig2+) / Vasculature (CD31 MVD): relative to vehicle
normal microglia = test: Microglia in normal non-tumor bearing mice, flow cytometry; format: in vivo, mouse; conditions: 200 mg/kg once per day for 7 days
Protocol: Data are presented as mean±SEM. […] Circles represent individual mice (n=5-6 per group). P values were obtained using unpaired two-tailed Student's t-test; *P<0.05.
As many immune cell epitopes are papain-sensitive, for investigation of immune cell infiltration by flow cytometric analysis, tumors were digested to a single cell suspension by incubation for 10 minutes at 37° C. with 5 mL of 1.5 mg/ml collagenase III (Worthington) and 0.06 mg/mL DNase I in 1× Hanks Balanced Salt Solution (HBSS) with calcium and magnesium. The cell suspension was then washed with PBS and passed through a 40 μm mesh to remove undigested tissue. To remove myelin debris, the cell pellet was resuspended at room temperature in 15 ml of 25% Percoll prepared from stock isotonic Percoll (90% Percoll [Sigma], 10% 10× HBSS), and then spun for 15 minutes at 1500 rpm (Sorvall Legend RT) with accelerator and brake set to 1. The cell pellet was then washed with lx HBSS prior to being resuspended in FACS buffer.
After counting, cells were incubated with 1 μl of Fc Block for every million cells for at least 15 minutes at 4° C. Cells were then stained with the appropriate antibodies for 10 minutes at 4° C., washed with FACS buffer, and resuspended in FACS buffer containing DAPI (5 mg/ml diluted 1:5000) for live/dead cell exclusion.

In the case of CNC(=O)c1cc(Oc2ccc3nc(N[C@@H]4CCCC[C@H]4O)sc3c2)ccn1 [BLZ945], the IC50 [1] is reported as 67 nM, the “macrophage (BMDM) survival / viability” value [2] is reported as “significantly decreases the viability; also recorded: blocks macrophage survival” and the BMDM survival (Ink4a/Arf−/− BMDMs) is reported as “blocked the survival”. For the same compound, the “survival / viability of microglia cell line” value [3] was “reduced viability; also recorded: blocks survival”, the “proliferation of PDG tumor cell lines” value (PDG tumor cell lines) was “no effect” and the blood-brain barrier crossing [4] was “able to effectively cross the blood-brain barrier”. For the same compound, the “concentration in contralateral non-tumor bearing hemisphere versus tumor” value ([4]; all time points tested) was “comparable to the level achieved in the tumor”, the “Apoptosis (% CC3+)” value (established PDG gliomas; BLZ945, Day 3) was “+17-fold” and the “Macrophages (% CD68+)” value (established PDG gliomas; BLZ945, Day 3) was “+3-fold”. For the same compound, the “Phagocytic Capacity” value (established PDG gliomas; BLZ945, Day 3) was “+11.5-fold”, the “Proliferation (% BrdU+Olig2+)” value (established PDG gliomas; BLZ945, Day 3) was −91% and the “Total DAPI+ Cells” value (established PDG gliomas; BLZ945, Day 3) was −72%. For the same compound, the “Tumor Cells (% Olig2+)” value (established PDG gliomas; BLZ945, Day 3) was −27%, the “Apoptosis (% CC3+)” value (established PDG gliomas; BLZ945, Day 7) was “+6-fold” and the “Macrophages (% CD68+)” value (established PDG gliomas; BLZ945, Day 7) was “+2-fold”. The “Phagocytic Capacity” value (established PDG gliomas; BLZ945, Day 7) was “+5.0-fold”, the “Proliferation (% BrdU+Olig2+)” value (established PDG gliomas; BLZ945, Day 7) was −67% and the “Total DAPI+ Cells” value (established PDG gliomas; BLZ945, Day 7) was −80%. For the same compound, the “Tumor Cells (% Olig2+)” value (established PDG gliomas; BLZ945, Day 7) was −77%, the “Vasculature (CD31 MVD)” value (established PDG gliomas; BLZ945, Day 7) was −17% and the “Tumor Volume (Day −1 vs Day 6)” value (established PDG gliomas; BLZ945, Day 7, start 4.5-40 mm3) was “+0.68%”. For the same compound, the “Apoptosis (% CC3+)” value (established PDG gliomas; BLZ945 Large, Day 3) was “+9-fold”, the “Macrophages (% CD68+)” value (established PDG gliomas; BLZ945 Large, Day 3) was “+2-fold” and the “Phagocytic Capacity” value (established PDG gliomas; BLZ945 Large, Day 3) was “+7.1-fold”. For the same compound, the “Proliferation (% BrdU+Olig2+)” value (established PDG gliomas; BLZ945 Large, Day 3) was −98%, the “Total DAPI+ Cells” value (established PDG gliomas; BLZ945 Large, Day 3) was −40% and the “Tumor Cells (% Olig2+)” value (established PDG gliomas; BLZ945 Large, Day 3) was −14%. The “Apoptosis (% CC3+)” value (established PDG gliomas; BLZ945 Large, Day 7) was “+2-fold”, the “Macrophages (% CD68+)” value (established PDG gliomas; BLZ945 Large, Day 7) was “+4-fold” and the “Phagocytic Capacity” value (established PDG gliomas; BLZ945 Large, Day 7) was “+6.0-fold”. For the same compound, the “Proliferation (% BrdU+Olig2+)” value (established PDG gliomas; BLZ945 Large, Day 7) was −94%, the “Total DAPI+ Cells” value (established PDG gliomas; BLZ945 Large, Day 7) was −65% and the “Tumor Cells (% Olig2+)” value (established PDG gliomas; BLZ945 Large, Day 7) was −73%. The “Vasculature (CD31 MVD)” value (established PDG gliomas; BLZ945 Large, Day 7) was −67%, the “Tumor Volume (Day −1 vs Day 6)” value (established PDG gliomas; BLZ945 Large, Day 7, start >40 mm3) was −24.3% and the “mice with >30% reduction in tumor volume (partial response, RECIST)” value (established PDG gliomas; BLZ945 Large, tumors >40 mm3, 7 day trial) was 6 of 18. For the same compound, the “reduction of tumor cell proliferation” value (established PDG gliomas; all groups and time points) was 67-98%, the “treated mice exhibiting a tumor response (histology)” value (established PDG gliomas; already evident at d3) was 100% and the “average blood vessel length” value (established PDG gliomas; both treatment groups compared to vehicle) was “decreased”. The “average density of Olig2+ tumor cells, of total cells” value (established PDG gliomas; by d7, both CSF-1R inhibitor groups) was under 20%, the “TAM numbers in tumors” value (established PDG gliomas; compared to vehicle) was “did not affect TAM numbers” and the increase in apoptosis (established PDG gliomas; d3) was 9-to 17 fold. For the same compound, the “Iba1+ macrophages that are CSF-1R+ within the tumor” value (established PDG gliomas; d7) was “no significant differences”, the “immune cell infiltration, comparisons between treatment groups” value (established PDG gliomas; day 7, flow cytometry) was “not significant” and the “microglia in adjacent normal brain” value (established PDG gliomas; mouse, in vivo) was “evident microglia depletion”. For the same compound, the “pericyte coverage of the vessels” value (established PDG gliomas; mouse, in vivo) was “no significant differences”, the “tumor growth (MRI tumor volume)” value (established PDG gliomas; starting tumor volume 4.5-40 mm3, 7 day trial) was “significantly halted tumor growth” and the “increase in Olig2+CC3+ cells engulfed by CD11b+ macrophages” value (established PDG gliomas; treated groups) was 2 to 4 fold. The “increased phagocytic capacity of macrophages” value (established PDG gliomas; treated groups) was 5 to 11.5 fold and the “normal microglia in non-tumor bearing mice” value (normal microglia) was “depletes normal microglia”.
